Test results from patent publication EP2050455B1, “Compounds leading to an increase of the IL-12/IL-10 ratio and their use for therapy of infectious and proliferative diseases” (priority 2007, dated 2009).

How the values were obtained:
[1] = tested on: MoDC; test: Surface marker expression / maturation of MoDC by flow cytometry; format: cell-based, Human
Experimental: (§1) The number of living cells was measured by Casy-technology. […] They were analysed for expression of CD14 versus HLA-DR. Morphology was assessed by phase contrast microscopy. […] MoDC were cultured in serum containing media (A) or serum free (B). They were left untreated (black), treated with maturation cocktail as positive control (green), or with 10 nM OspA-LP (red) for 48 hours and analysed by flow cytometry for viability or the expression of CD14, CD1a, CD86/CD80 double positive cells, CD83 and CD197 (CCR7). Data were collected from 4 independent experiments. The results are means ±SD. […] After another 24 hours the cells were analysed for IL-10 production by ELISPOT assay. […] The resulting values are given numbers of spots. […] All LP treated MoDC (red) were compared with untreated MoDC (black). The blue line represents 100 spots per 5x10^4 MoDC. […] They were analysed for IL-10 (left) and IL-12p70 production (right). Shown are 3 independent experiments using cells from different healthy donors. Compared to the untreated controls (black), IL-10 production is not depressed by LPS R60/IFN-γ (red). […] (A) number of cytokine producing cells: IL-10 (black); IL-12p70 (red). (B) ratio of IL-12p70/IL-10 producing cells. […] The resulting cells were analysed for the surface expression of both CD80 and CD86 in dot plot analyses (A), and CD83 histogram overlay (B).
Cytokines GM-CSF (800 IU/ml; Bayer Healthcare Pharmaceutical) plus GMP-certified IL-4 (500 IU/ml; CellGenix, Freiburg, Germany) were added to induce transdifferentiation from monocytes to immature monocyte-derived dendritic cells (iMoDC). After 5-7 days of culture iMoDC were analysed for the surface markers CD1a, CD209 und CD14 using the antibodies listed in the following table. Table
Maturation signals were added, including signals to trigger polarisation. The cells were further cultured for another 2 days.
Alternatively, the maturation phase was split into individual steps: • Step 1: TLR agonists lipopeptides • Step 2: presence of the previous inducers, TLR agonists lipopolysaccharide added in the presence of IFN-γ.

[2] = tested on: IL-12p70 production of MoDC; test: IL-12p70 production by ELISPOT assay (indicator culture); format: cell-based, Human
Experimental: as §1
(§2) This culture imitates the fate of DC after injecting them into an organism and is designed to test the actual production and release of IL-12 and IL-10 during this phase. This is tested by the well-known ELISPOT-assay. For this phase the previous inducers were either sustained or washed out. Also, further inducers were added. Number of spots as well as the intensity of spots could be read out. Therefore, this setup does more realistically reflect the actual functional state of DC at the time of injection and thereafter.

[3] = tested on: MoDC; conditions: Nishiguchi et al. (2001); cited from earlier work
[4] = tested on: iMoDC; test: Phenotype modification: CD14 versus HLA-DR expression and phase contrast morphology; format: cell-based, Human; conditions: non-toxic concentrations, 20-48 hours (Example 3)
Experimental: Human peripheral blood monocytes were prepared by various well-established techniques. • (1) Blood drawing was carried out in the presence of the anticoagulant EDTA, separation of the nucleated cells by combined density/velocity gradient centrifugation, followed by selective adherence in the culture for one hour. The non-attached cells were washed off and the remaining population of highly enriched monocytes was further cultured. • (2) Alternatively, blood cells were recovered by leukapheresis, followed by counterflow elutriation. The highly enriched monocyte fraction was either freeze protected or taken into culture. Cells were cultured in a humidified incubator (37°C, 5% CO2).

[5] = tested on: IL-10 production of MoDC; test: IL-10 production by ELISPOT assay (indicator culture); format: cell-based, Human
Experimental: as §1, §2

[6] = non-toxic concentrations, 20-48 hours (Example 3)

FSL-1
Maturation of MoDC (surface expression of CD80, CD86, CD83) ([1]; FSL-1 LP 1 nM, LPS R60 1 µg/ml / IFN-γ 500 IU/ml, single or sequential (Figure 10)): only incomplete maturation | Costimulatory signals (CD80, CD86) [1, 6]: upregulated | maturation as measured by expression of CD83 [1, 6]: No complete maturation | IL-12p70 production ([2]; OspA-LP 10 nM, FSL-1 1 nM, FSL-2 1 nM, alone or combined with IFN-γ (500 IU/ml), 24 hours (Figure 6)): remains extremely low | production of IL-12 ([2]; immature DC): No effect | IL-12p70 production [2, 6]: only poorly stimulated | Maturation of DC [3]: incompletely | cell phenotype [4]: modification | IL-10-secretion of immature DC ([5]; ELISPOT): down-regulation | IL-10 production ([5]; OspA-LP 10 nM, FSL-1 1 nM, FSL-2 1 nM, alone or combined with IFN-γ (500 IU/ml), 24 hours, vs untreated (Figure 6)): downregulated | IL-10 secreting cells ([5]; non-toxic concentrations, 20-48 hours, dose-dependent, donor-independent (Example 3)): decrease
